Patent publication US9138438B2, “Method for protecting a retinal neuronal cell” (ASAHI GLASS COMPANY, LIMITED, priority 2005, dated 2015)

Tested on: rat fetal retinal neuronal cells
Assay: Glutamate-induced retinal neuronal cell death, trypan blue survival rate
Format: cell-based
Details: test compound 0.1 nM to 100 nM; 24 hours pre-incubation, 1 mM glutamate 10 minutes, then 1 hour with test compound; survival rate by trypan blue
Protocol: In order to find a new pharmaceutical application of a prostaglandin F2α derivative, by using rat fetal retinal neuronal cells, an effect of a prostaglandin F2α derivative on protecting retinal neuronal cells against glutamate-induced retinal neuronal cell death was evaluated and examined.
Incidentally, as the prostaglandin F2α derivative which is a test compound, 16-phenoxy-15-deoxy-15,15-difluoro-17,18,19,20-tetranor-prostaglandin F2α was used.
A pregnant SD rat was subjected to laparotomy under systemic anesthesia, and the uterus was transferred to a dish containing Hanks's balanced salt solution (HBSS). A rat fetus was isolated from the uterus, and the eyeballs of the rat fetus were taken out. The retina was isolated from the eyeballs under a stereoscopic microscope and cut into pieces with a surgical knife. […] After the cell number was counted with a hemocytometer, an MEM medium containing 10% FBS was added thereto, whereby a cell suspension with a cell density of 0.8×10^6 cells/mL was obtained. […]
At day 10 of culture, the plastic discs in which cells were inoculated and cultured were transferred to the HS-containing MEM medium containing the test compound and incubated for 24 hours (37° C., 5% CO2). […] After the cells were washed with a physiological saline solution, stained cells and unstained cells were counted under an inverted microscope. […]

## O=C(O)CCC/C=C\C[C@@H]1[C@@H](/C=C/C(F)(F)COc2ccccc2)[C@H](O)C[C@@H]1O [test compound, 16-phenoxy-15-deoxy-15,15-difluoro-17,18,19,20-tetranor-prostaglandin F2α]
  glutamate-induced retinal neuronal cell death: inhibited in a concentration-dependent manner
